Measurements: patent US9416144B2, “Benzoxazine oxazolidinone compound, preparation method and application thereof” (priority 2012, dated 2016)
Values after ≈ are worked out from the molar mass of the structure shown. Values joined by “and” are separate entries in the source; they are usually repeats but may differ in a detail not shown here. Equal entries are not always repeated. Where two headings read alike, the source gives them in different places.

Columns and labels:
[1] = tested on: Staphylococcus aureus sensitive strains (5 strains); experiment: In vitro antibacterial activity, MIC by agar double dilution method; format: cell-based; conditions: clinical isolates
Source text: (§1) Experimental method: The agar double dilution method (Antimicrob. Agents and Chemother, 40, 1996, 720-726) was used to determine the minimum inhibitory concentration (MIC) of the series of compounds of the invention and the positive control drug linezolid for the test strains. The multipoint inoculation system (Denley A400) was employed to inoculate the bacteria on the agar plate surface with different concentrations of drugs; inoculation amount on each point was about 10^6 CFU/mL. The plates were incubated at 35° C. for 16 hrs before the results were observed. The lowest drug concentration contained in the Petri dish without bacterial growth was used as the minimum inhibitory concentration (MIC value) of the drug fir that strain.
(§2) Test strains: All the test strains were clinically isolated pathogens which were collected from the Nanjing region, and they were re-identified by routine methods before use. 31 strains of the clinically isolated pathogens were chosen, including 6 strains of Enterococcus, 5 Staphylococcus aureus sensitive strains; 5 Staphylococcus epidermidis sensitive strains; 6 Staphylococcus aureus resistant strains; 5 Staphylococcus epidermidis resistant strains; and 4 Streptococcus pneumoniae resistant strains.
(§3) Compounds to be tested were first added 2 ml of DMSO to help them fully dissolved, then added sterile double distilled water to the desired concentration; to all the Petri dish with added drug liquid were added 20 mL MIT medium which was heat-melted to be liquid-like, to make the final drug concentration in the Petri dish to be 64, 32, 16, 8, 4, 2, 1, 0.5, 0.25, 0.125, 0.0625, and 0.031 μg/mL.
(§4) The positive control group was LZ (linezolid, brand name Zyvox, approved by the FDA in 2000 to be firstly sold in the United States, which is the first and also the only one of oxazolidinone antibacterial drugs allowed to enter clinical application).

[2] = tested on: Staphylococcus epidermidis resistant strains (5 strains); experiment: as above; format: cell-based; conditions: clinical isolates
Source text: as §1, §2, §3, §4

[3] = tested on: Streptococcus pneumoniae resistant strains (4 strains); experiment: as above; format: cell-based; conditions: clinical isolates
Source text: as §1, §2, §3, §4

Enterococcus (6 strains) = experiment: as above; format: cell-based; conditions: clinical isolates, 35° C. 16 hrs
Source text: as §1, §2, §3, §4

[4] = tested on: Staphylococcus aureus resistant strains (6 strains); experiment: as above; format: cell-based; conditions: clinical isolates
Source text: as §1, §2, §3, §4

[5] = tested on: Staphylococcus epidermidis sensitive strains (5 strains); experiment: as above; format: cell-based; conditions: clinical isolates
Source text: as §1, §2, §3, §4

[6] = In vivo pharmacokinetic assays in rats (intragastric and intravenous), plasma Compound 14 by LC-MS/MS; set-up: species or system SD rats; conditions: rats
[7] = as above; set-up: species or system SD rats
Method: Two routes of administration (intragastric administration and intravenous injection) were employed.
(§5) Intragastric administration: Four healthy SD rats, male, weight 200-250 g, were dosed 15 mg/kg; the delivery volume was 10 ml/kg, prepared with 0.5% CMC-Na. The rats were fasted for 12 hrs before administration, free water-drinking. 0.3 ml of venous blood was taken from the posterior venous plexus of rats to heparinized tubes at 0.25, 0.5, 1.0, 2.0, 3.0, 4.0, 5.0, 7.0, 9.0, 24, and 48 hrs after administration, centrifuged at 3500 rpm for 10 mins to separate the plasma, which was then stored at −20° C. for test.
as §5, with “Intravenous injection: Two” for “Intragastric administration: Four”, “200˜250” for “200-250”, “5” for “15”, “DMSO, Tween 80 and deionized water.” for “0.5% CMC-Na.”, “5 min, 15 min, and” for “0.25,”
The concentration of Compound 14 in plasma was determined by liquid chromatography tandem mass spectrometry.
In accordance with the above experimental methods, the inventor has determined the in vivo pharmacokinetic properties of phosphate (ester) disodium salt 37 of Compound 14 in rats.

[8] = male, SD, rat, in vivo, iv, 5 mg/kg, 5 mg/kg Compound 14 intravenous injection, average value
[9] = male, SD, rat, in vivo, po, 15 mg/kg, 15 mg/kg Compound 14 intragastric, average value
[10] = male, SD, rat, in vivo, po, 15 mg/kg, 15 mg/kg Compound 14 intragastric, individual animals No. 15-18
[11] = 5 mg/kg Compound 14 intravenous injection, individual animals No. 19-21, 5 mg/kg
[12] = 15 mg/kg Compound 14 intragastric, individual animals No. 15-18, 15 mg/kg

## O=C1O[C@@H](CO)[C@@H]2COc3cc(-c4ccc(C(O)CO)nc4)ccc3N12 (stereo partly drawn) [Compound 4, (3R,3aS)-7-(6-(1,2-dihydroxylethyl)pyridin-3-yl)-3-(hydroxylmethyl)-3a,4-dihydrobenzo[b]oxazolo[3,4-d][1,4]oxazin-1(3H)-one]
other
  melting point: 150 to 152 °C
[1]
  MIC: 0.5 to 1 µg/mL (≈ 1.4 to 2.79 µM)
[2]
  MIC: 0.5 µg/mL (≈ 1.4 µM)
[3]
  MIC: 1 to 2 µg/mL (≈ 2.79 to 5.58 µM)
Enterococcus (6 strains)
  MIC: 1 to 2 µg/mL (≈ 2.79 to 5.58 µM)
[4]
  MIC: 0.5 to 1 µg/mL (≈ 1.4 to 2.79 µM)
[5]
  MIC: 0.5 µg/mL (≈ 1.4 µM)

## O=C1O[C@@H](CO)[C@@H]2COc3cc(-c4ccc(N5CCC(O)CC5)nc4)ccc3N12 [Compound 11, (3R,3aS)-3-(hydroxylmethyl)-7-(6-(4-hydroxylpiperidin-1-yl)pyridin-3-yl)-3a,4-dihydrobenzo[b]oxazolo[3,4-d][1,4]oxazin-1(3H)-one]
other
  melting point: > 198 °C
[1]
  MIC: 2 to 4 µg/mL (≈ 5.03 to 10.1 µM)
[2]
  MIC: 8 µg/mL (≈ 20.1 µM)
[3]
  MIC: 2 to 8 µg/mL (≈ 5.03 to 20.1 µM)
Enterococcus (6 strains)
  MIC: 16 µg/mL (≈ 40.3 µM)
[4]
  MIC: 4 µg/mL (≈ 10.1 µM)
[5]
  MIC: 2 to 4 µg/mL (≈ 5.03 to 10.1 µM)

## CC(=O)c1ccc(-c2ccc3c(c2)OC[C@H]2[C@H](CO)OC(=O)N32)cn1 [Compound 13, (3R,3aS)-7-(6-acetylpyridin-3-yl)-3-(hydroxylmethyl)-3a,4-dihydrobenzo[b]oxazolo[3,4-d][1,4]oxazin-1(3H)-one]
other
  melting point: 199 to 201 °C
[1]
  MIC: 2 to 4 µg/mL (≈ 5.88 to 11.8 µM)
[2]
  MIC: 4 to 8 µg/mL (≈ 11.8 to 23.5 µM)
[3]
  MIC: 8 to 16 µg/mL (≈ 23.5 to 47 µM)
Enterococcus (6 strains)
  MIC: 2 µg/mL (≈ 5.88 µM)
[4]
  MIC: 2 to 4 µg/mL (≈ 5.88 to 11.8 µM)
[5]
  MIC: 4 µg/mL (≈ 11.8 µM)

## CN1CC(c2ccc(-c3ccc4c(c3)OC[C@H]3[C@H](CO)OC(=O)N43)cn2)OC1=O (stereo partly drawn) [Compound 14, (3R,3aS)-3-(hydroxylmethyl)-7-(6-(3-methyl-2-oxazolidin-5-yl)pyridin-3-yl)-3a,4-dihydrobenzo[b]oxazolo[3,4-d][1,4]oxazin-1(3H)-one]
[6]; [8]
  AUC(0-inf): 1560 ng·h/mL
  half-life: 2.51 ± 0.92 h
[6]; male, SD, rat, in vivo, iv, 5 mg/kg, 5 mg/kg Compound 14 intravenous injection, average value, read-out: AUC0-t
  AUC0-t: 1540 ± 54 ng·h/mL
[6]; male, SD, rat, in vivo, iv, 5 mg/kg, 5 mg/kg Compound 14 intravenous injection, average value, read-out: MRT
  MRT: 0.74 h
[6]; male, SD, rat, in vivo, iv, 5 mg/kg, 5 mg/kg Compound 14 intravenous injection, individual animals No. 19-21
  AUC(0-inf): 1600 ng·h/mL
[6]; male, SD, rat, in vivo, iv, 5 mg/kg, 5 mg/kg Compound 14 intravenous injection, individual animals No. 19-21, read-out: AUC0-t
  AUC0-t: 1600 ng·h/mL
[6]; male, SD, rat, in vivo, iv, 5 mg/kg, 5 mg/kg Compound 14 intravenous injection, individual animals No. 19-21, read-out: MRT
  MRT: 0.61 h
[6]; male, SD, rat, in vivo, iv, 5 mg/kg, 5 mg/kg Compound 14 intravenous injection, individual animals No. 19-21, read-out: Vss
  Vd: 1.9 L/kg
[6]; [9]
  AUC(0-inf): 2170 ng·h/mL
  Cmax: 809 ± 267 ng/mL
  Tmax: 1 ± 0.71 h
[6]; male, SD, rat, in vivo, po, 15 mg/kg, 15 mg/kg Compound 14 intragastric, average value, read-out: AUC0-t
  AUC0-t: 2070 ± 319 ng·h/mL
[6]; male, SD, rat, in vivo, po, 15 mg/kg, 15 mg/kg Compound 14 intragastric, average value, read-out: MRT
  MRT: 2.64 h
[6]; [10]
  half-life: 2.29 h
[6]; male, SD, rat, in vivo, po, 15 mg/kg, 15 mg/kg Compound 14 intragastric, individual animals No. 15-18, read-out: AUC0-t
  AUC0-t: 1620 ng·h/mL
[6]; male, SD, rat, in vivo, po, 15 mg/kg, 15 mg/kg Compound 14 intragastric, individual animals No. 15-18, read-out: MRT
  MRT: 3.36 h
[6]; [11]
  AUC0-t: 1490 ng·h/mL and 1526 ng·h/mL
  AUC0-∞: 1510 ng·h/mL and 1555 ng·h/mL
  CLz: 52 mL/min/kg and 55.2 mL/min/kg and 53.7 mL/min/kg
  MRT: 0.79 h and 0.82 h
  Vss: 2.62 L/kg and 2.64 L/kg
  t1/2: 1.62 h and 2.46 h and 3.45 h
[6]; 15 mg/kg Compound 14 intragastric vs 5 mg/kg intravenous, dose corrected
  F (absolute bioavailability): 44%
[1]
  MIC: 0.5 to 1 µg/mL (≈ 1.26 to 2.52 µM)
[2]
  MIC: 0.25 to 1 µg/mL (≈ 0.629 to 2.52 µM)
[3]
  MIC: 1 µg/mL (≈ 2.52 µM)
Enterococcus (6 strains)
  MIC: 1 to 2 µg/mL (≈ 2.52 to 5.03 µM)
[4]
  MIC: 0.5 to 1 µg/mL (≈ 1.26 to 2.52 µM)
[5]
  MIC: 0.25 to 0.5 µg/mL (≈ 0.629 to 1.26 µM)
[7]; [12]
  AUC0-t: 2174 ng·h/mL and 2095 ng·h/mL and 2374 ng·h/mL
  AUC0-∞: 2290 ng·h/mL and 2165 ng·h/mL and 2440 ng·h/mL
  Cmax: 474 ng/mL and 766 ng/mL and 878 ng/mL and 1117 ng/mL
  MRT: 2.93 h and 2.03 h and 2.23 h
  Tmax: 2.00 h and 0.50 h
  t1/2: 1.64 h and 2.34 h and 1.45 h
[7]; male, SD, rat, in vivo, 5 mg/kg Compound 14 intravenous injection, average value, read-out: CLz (plasma clearance) (converted)
  clearance: 53.7 mL/min/kg
[7]; male, SD, rat, in vivo, 15 mg/kg, 15 mg/kg Compound 14 intragastric vs 5 mg/kg intravenous, dose corrected, read-out: F (absolute bioavailability)
  bioavailability: 44.8%
[7]; male, SD, rat, in vivo, iv, 5 mg/kg, 5 mg/kg Compound 14 intravenous injection, average value, read-out: Vss (distribution volume)
  Vd: 2.39 ± 0.42 L/kg
[7]; [9]
  half-life: 1.93 ± 0.45 h
[7]; [10]
  AUC(0-inf): 1770 ng·h/mL
